# Laboratory results from ChEMBL document CHEMBL2094260, “Malaria Box Tuberculosis Screening Data”.
# Key:
# [1] = system: Mycobacterium tuberculosis; experiment: MMV: Screen against Mtb, single point, non replicating, at 25uM; assay type: functional
# [2] = system: Mycobacterium tuberculosis; experiment: MMV: Screen against Mtb, single point, replicating, at 25uM; assay type: functional
# [3] = system: Mycobacterium tuberculosis; experiment: MMV: CRC and MIC90 against Mtb (non replicating); assay type: functional
# [4] = system: Mycobacterium tuberculosis; experiment: MMV: CRC and MIC90 against Mtb (replicating); assay type: functional
# [5] = MMV: Cytotoxicity CRC and LD50 against HepG2; assay type: toxicity, cell-based; settings: human, HepG2 cells; read-out: LD50 (the source's name)
SMILES,inhibition at 25 µM [1],inhibition at 25 µM [2],MIC90 [3],MIC90 [4],CC50 [5]
O=C(NC1CCN(Cc2ccccc2)CC1)c1cc(-c2ccncc2)nc2ccc(Cl)cc12,20.6%,66%,> 100 µM,32.5 µM,7.1 µM
CC(C)CCNCC(O)Cn1c2ccccc2c2ccccc21 (stereo not given),16.6%,83.6%,> 100 µM,22.9 µM,4.74 µM
Cc1ccc(Nc2nc(-c3ccccn3)cs2)cc1,23%,59.3%,> 100 µM,50.7 µM,
Cc1cc(C)c2nc(N3CCC(C(=O)NCCCN4CCC(N5CCCCC5)CC4)CC3)sc2c1,15.2%,60.2%,> 100 µM,60.8 µM,2.55 µM
Nc1ccc(-c2nc3cc(Cc4ccc5[nH]c(-c6ccc(N)cc6)nc5c4)ccc3[nH]2)cc1,41.4%,94%,> 100 µM,10.9 µM,2.45 µM
CCOc1ccc2nc(C)cc(Nc3ccc(N(C)C)cc3)c2c1,15.7%,78%,67.4 µM,38.3 µM,7.38 µM
Cc1ccc2c(C)nc(Nc3nc(C)cc(-c4ccccc4)n3)nc2c1,24.2%,96.8%,57.9 µM,18.6 µM,> 100 µM
CCCCOC(=O)c1ccc(Nc2cc(C)nc3ccc(OC)cc23)cc1,24.7%,96.5%,> 100 µM,94.9 µM,6.93 µM
Cc1ccc(NC(=O)Nc2cccc(Cl)c2)cc1F,19.7%,80.7%,> 100 µM,28.8 µM,11.1 µM
FC(F)(F)c1cccc(Nc2nc3ccccc3nc2Nc2cccc(C(F)(F)F)c2)c1,102%,97.6%,5.75 µM,3.33 µM,1.59 µM
Clc1ccc2c(N3CCCC3)ccnc2c1,17.1%,68.8%,> 100 µM,> 100 µM,34.9 µM
OC(CNC1CCCCC1)Cn1c2ccccc2c2ccccc21 (stereo not given),14%,66.6%,> 100 µM,55.9 µM,4.97 µM
Clc1cc(Br)ccc1-c1ccc(CNCC2CCNCC2)o1,34.2%,86.5%,> 100 µM,29.3 µM,1.78 µM
Cc1nc2ccccc2c(O)c1CC=C(Cl)Cl,0.782%,91%,> 100 µM,14.3 µM,98.8 µM
Cc1ccc(Nc2nc(NCCO)c3ccccc3n2)cc1C,7.14%,97.2%,82.6 µM,9.52 µM,5.5 µM
OC(CNCc1ccccc1)Cn1c2ccccc2c2ccccc21 (stereo not given),14.3%,90.3%,> 100 µM,20.1 µM,5.69 µM
Cc1cc(Nc2ccc(OCc3ccccc3)cc2)nc2cc(O)ccc12,10%,99.8%,50 µM,19.9 µM,8.16 µM
O=C(Nc1nc(-c2ccccn2)cs1)c1ccccc1Br,84.5%,95.3%,58.2 µM,48.7 µM,
CCCCCn1c(=N)n(CC(O)COc2cccc(C)c2)c2ccccc21 (stereo not given),8.77%,96.5%,> 100 µM,23 µM,4.92 µM
CC1CCN(Cc2ccc(NC(=O)c3cc4ccc5cccnc5c4[nH]3)cc2)CC1,13.8%,75.1%,> 100 µM,33.3 µM,4.42 µM
Oc1ccc2ccccc2c1CNc1nc2ccccc2[nH]1,35.9%,76.1%,,74.1 µM,14.1 µM
COc1cccc(C(=O)NC(c2ccc(C)cc2)c2cc(Cl)c3cccnc3c2O)c1 (stereo not given),14.3%,10.4%,,,
COc1ccc(-c2nonc2NC(=O)c2cccc(C)c2)cc1OC,-4.72%,3.1%,,,

SMILES,inhibition at 25 µM [1],inhibition at 25 µM [2],MIC90 [3],MIC90 [4],CC50 [5]
CN(C)c1ccc(N=Cc2ccc(N3CCOCC3)cc2)cc1,-1.53%,38.8%,,,
CCOc1ccc(C2N(C)c3ccccc3N2C)cc1,11.7%,8.11%,,,
CN1CCN(c2nc(Nc3ccc(O)cc3)nc3ccccc23)CC1,6.46%,8.7%,,,
COc1cccc(C=Cc2nc(=O)c3ccccc3o2)c1OC,11.5%,40.6%,,,
CCOc1ccc(-c2nonc2NC(=O)c2cccc(C)c2)cc1OCC,9.24%,2.34%,,,
Cc1[nH]c(-c2ccc(F)cc2)cc1C(=O)NC1CCN(Cc2ccccc2)CC1,4%,20.7%,,,
COc1cccc(O)c1CN1CCC2(CCCN(Cc3ccc(F)cc3)C2)C1 (stereo not given),16.4%,18%,,,
COc1ccc2c(c1OC)C(=O)N1c3ccccc3N=C(c3ccc(C)cc3)CC21 (stereo not given),15.2%,4.94%,,,
CCOc1ccc(-c2nc(NC(=O)c3cccc(S(C)(=O)=O)c3)sc2C)cc1,11.7%,54.3%,,,
O=C(Nc1ccc(Cl)cc1)N1CCN(c2ccc3nncn3n2)CC1,-3.33%,12.8%,,,
Cc1ccc2nc(C)cc(Nc3cccc(C(F)(F)F)c3)c2c1,10.4%,39%,,,
O=C(NCC(c1ccsc1)N1CCCCCC1)c1ccc(C(F)(F)F)cc1 (stereo not given),10.5%,8.41%,,,
CNCCCNc1ccnc2cc(Cl)ccc12,5.05%,8.11%,,,
COc1nc(Nc2ccc(C(C)C)cc2)nc(OC)n1,8.02%,14%,,,
O=C(O)C1Cc2c([nH]c3ccccc23)C(c2ccc(Cl)cc2Cl)N1 (stereo not given),8.72%,13.7%,,,
CN1CCN(c2ncnc3c2[nH]c2ccc(Cl)cc23)CC1,1.91%,23.9%,,,
Cc1c(C)n(Cc2ccc(F)cc2)c2ccc(C(=O)NCc3ccco3)cc12,11.7%,69.5%,,,> 100 µM
COCCN(C(=O)Cc1cccs1)C(C(=O)NCc1ccc(OC)cc1)c1ccc(C(C)C)cc1 (stereo not given),31.4%,10.2%,,,
Clc1ccc2[nH]c3c(NCCCN4CCOCC4)ncnc3c2c1,21.6%,16.2%,,,
COc1cc(C(=O)Nc2nc3c(cc4c5c(cccc53)CC4)s2)cc(OC)c1OC,17.8%,-3.53%,,,
O=C(NCC1Cc2cccc(-c3ccncc3)c2O1)c1csc2c1CCCC2 (stereo not given),5.92%,14.2%,,,
CC(O)(c1ccc(Cl)cc1)C(CN1CCCCC1)c1ccccc1 (stereo not given),11.2%,8.72%,,,
COc1ccc(C)c2sc(N(Cc3cccnc3)C(=O)c3ccc(C#N)cc3)nc12,23.9%,9.48%,,,

SMILES,inhibition at 25 µM [1],inhibition at 25 µM [2],MIC90 [3],MIC90 [4],CC50 [5]
CCOC(=O)c1cnc2ccc(CC)cc2c1O,7.14%,12.5%,,,
O=C(Nc1ccsc1C(=O)NC1CCCCC1)c1ccc(F)cc1,20.6%,3.4%,,,
CCN1CCN(c2c(C(=O)c3ccccc3)cnc3cc(OC)c(OC)cc23)CC1,1.14%,5.25%,,,
CC(C)(C)c1ccc2c(c1)CN(Cc1ccc(Cl)cc1)CO2,41.2%,48.4%,,,
COc1cccc(NC(=O)[C@H](C(C)C)n2c(=O)[nH]c3ccccc3c2=O)c1,5.22%,7.35%,,,
CCN(CC)S(=O)(=O)c1ccc(-c2csc(Nc3ccc(C)c(C)c3)n2)cc1,14.1%,6.89%,,,
CC1CCN(Cc2c(O)ccc3cc(-c4nc5ccccc5s4)c(=O)oc23)CC1,12%,8.23%,,,
OC(CNCC1CCCO1)Cn1c2ccc(Cl)cc2c2cc(Cl)ccc21 (stereo not given),20.4%,1.28%,,,
CCOc1cc(Cl)c(C(C)NC(=O)c2cccc(OC)c2)cc1OCC (stereo not given),9.94%,1.28%,,,
CCOc1cccc2sc(N(Cc3cccnc3)C(=O)C3CCCCC3)nc12,14.3%,13.9%,,,
CC(C)(C)c1ccc(C(=O)Nc2c3c(nn2-c2cccc(Cl)c2)CSC3)cc1,-4.72%,-1.02%,,,
Nc1ccn([C@@H]2O[C@H](CO)[C@@H](O)[C@H]2O)c(=O)n1 [CYTIDINE],14.6%,-3.06%,,,
CCOc1ccccc1CNC(=O)C1c2ccccc2C(=O)N(CC(C)C)C1c1cccs1 (stereo not given),10.8%,43.5%,,,
COc1ccc(-c2cc3c(nn2)-c2ccccc2C3=O)cc1,26.7%,39%,,,
Fc1ccc2[nH]c3c(NCCCN4CCOCC4)ncnc3c2c1,13.8%,13.6%,,,
COc1ccc(CNC2CCN(c3ccc(NC(=O)c4cccc(Cl)c4)cc3)CC2)cc1OC,19.2%,47.3%,,,
O=C(Nc1ccc(N2CCN(Cc3ccccc3)CC2)cc1)c1cccs1,6.45%,11%,,,
Cc1sc(NC(=O)c2ccco2)c(C(c2cccnc2)N2CCC(Cc3ccccc3)CC2)c1C (stereo not given),-1.7%,21.7%,,,
CCOc1c(Cl)cc(CNC(C)C(O)c2ccccc2)cc1OC (stereo not given),10.3%,12.7%,,,
CCCCC(O)(c1ccc(Cl)cc1)C(CN1CCOCC1)c1ccc(Cl)cc1 (stereo not given),15.2%,17.3%,,,
O=C(Nc1cccc(-c2nc3ccccc3[nH]2)c1)c1cccc(NC(=O)c2ccco2)c1,46.1%,21.2%,,,
